Earlier results on one compound are cited in article PMC10261210 (Cancer Chemotherapy and Pharmacology, 2023).

Molecules are shown by their SMILES.

Series [1] deals with BRAF-mutant, BRAF deletion mutation and NRAS-mutant xenograft tumor models. Set-up: method as in doi:10.1016/S1359-6349(10)71810-3. The conditions noted are these: cited from earlier work.
The subject of another series is BRAF. Set-up: method as in PMID 28082416. The note with it: cited from earlier work.
Series [2] has as its system relapsed or progressive LGGs harboring BRAF alterations. Also on record: method as in ref 33 = [33]; 33. Kilburn L, Landi D, Leary S, Ziegler DS, Baxter P, Franson A, McCowage G, Waanders AJ, Van der Lugt J, Yalon Oren M, Gerber NU, Gottardo NG, Khuong-Quang D-A, Nysom K, Bailey S, Hernáiz Driever P. The conditions noted are these: interim analysis, first 25 enrolled patients with ≥ 6 months of follow-up, QW monotherapy; cited from earlier work.

As for `C[C@@H](NC(=O)c1ncnc(N)c1Cl)c1ncc(C(=O)Nc2cc(C(F)(F)F)c(Cl)cn2)s1` [tovorafenib], the p-ERK suppression result in series [1] was “strong and sustained p-ERK suppression”. In addition, the “affinity for monomeric versus dimeric forms of BRAF” value with BRAF is “equal affinity”. Also, in series [2], the clinical benefit rate is 91% and the overall response rate is 64%.
